Experiments:
[1] = Formation of adducts with MGO, kinetic study by HPLC; assay type: physicochemical; conditions: compound 10 mM, MGO 20 mM, 37° C.; for disappearance of the free scavenger to the benefit of adducts with the MGO: after 15 min of incubation
Procedure: The compounds to be tested are incubated at 37° C. in the presence of MGO or of MDA. A kinetic study aiming to report on the formation of adducts with the MGO or MDA is then carried out via HPLC analysis.
The compounds to be tested (30 μmol) are dissolved in PBS (1.5 mL). An aqueous solution (qsp 1.25 mL) of MGO at 40% in water (250 μmol) is then prepared and in parallel, MDA bis-(diOEt)-acetal (250 μmol) is set to react with a solution of HCl 1N (2 eq) in water (qsp 1.25 mL) for 1 h at room temperature. An aqueous solution of NaOH 0.05N is also required to neutralise the reaction medium (5 mL).
The solution of the compound to be tested (625 μL—final concentration in the medium=10 mM) is then set to react with the solution of MGO or of MDA prepared extemporaneously (125 μL—final concentration in the medium=20 mM) in the presence of NaOH 0.05 N (0.5 mL).
The various mixtures are then incubated in the oven at 37° C. for 24 h.
A sampling of each mixture (100 μL) is taken at regular intervals of time (0.25; 0.5; 1; 5 and 24 h) and stored at −20° C. in order to stop the reaction. After dilution in a MeCN/H2O 98:2 mixture at room temperature, the HPLC analysis is carried out on a Shimadzu LCMS-2020 apparatus (UV chromatogram at 190 nm and mass spectrum in positive electrospray ionisation mode (ESI+)) after separation on the Waters Acquity column using a gradient of solvents H2O+HCOOH 0.1%/MeCN+HCOOH 0.1% (98/2 for 2 min, then 55/45 for 2 min and 45/55 for 3 min) with a flow rate of 0.3 mL/min at 40° C. and an injection of volume of 1 (“detection mode: scan, interface voltage: tuning file, DL voltage: 100 V, Q-array DC: 40 V, Q-array RF: 40 V”). A blank is first of all carried out using a solution containing the reaction medium without scavenger. Then, a free scavenger solution at 10 mM is used as a negative control and the carnosine as a reference of the literature. The proportion of adducts formed with the MGO or MDA (generally, tR=4.1 to 6.8 min) is then measured in relation to the quantity of remaining free scavenger (generally, tR=0.8 to 4.6 min) after measurement of the area under the curve of the corresponding peaks on the UV spectrum (measurements taken for a representative sample).

[2] = Cu2+ chelating properties by UV/Visible light spectrophotometry (murexide); assay type: physicochemical; conditions: 0.02-2 mM compound, CuSO4 0.25 mM solution, Hexamine buffer pH 5, RT 10 min
Procedure: J. Mol. Sci., 2009, 10, 5485-5497; Molecules, 2012, 17, 13457-13472). […] A Hexamine buffer 0.01 M/KCl 0.01 M (qsp 200 mL) of which the pH is adjusted to 5 using a solution of HCl 1N is first of all prepared. Solutions of CuSO4.5H2O at 0.5 mM (20 mL) and 0.25 mM (100 mL) are then carried out in this buffer, with the first being used to obtain the calibration curve. An aqueous solution of murexide at 1 mM must also be prepared extemporaneously (10 mL) as well as a stock solution of the compounds to be tested at 4.2 mM in Hexamine buffer 0.01 M/KCl 0.01 M or in a buffer and MeOH 75/25 mixture (6.2 mL). Various concentrations of the compounds to be tested are distributed in Hexamine buffer 0.01M/KCl 0.01M (pH=5) (Table 5) or in a buffer and MeOH 75/25 mixture in tubes for hemolysis (Table 6). The solution of CuSO4.5H2O at 0.25 mM (1 mL) is then added and this is allowed to incubate at RT for 10 min. Finally, the aqueous solution of murexide at 1 mM (0.1 mL) is introduced and is again allowed to incubate at RT for 1 min. The absorbances are then measured at 485 nm ([…]) and 520 nm ([…]) by UV/Visible light spectrophotometry (V-650 JASCO spectrometer) (measurements taken in triplicates). […] After introduction of the aqueous solution of murexide at 1 mM (0.1 mL), this is allowed to incubate at RT for 1 min and the absorbances are finally measured at 485 nm ([…]) and 520 nm ([…]) by UV/Visible light spectrophotometry.

[3] = system: human fibroblasts (MRC-5); test: Cytotoxicity, cellular viability (CCK-8/WST-8) on MRC-5; assay type: cell-based
Procedure: The cellular viability is evaluated by a colorimetric method based on the detection of the conversion of a salt of the tetrazolium (WST-8) by the metabolically active cells (CCK-8 kit, Sigma, Lyons, France) (Molecules, 2014, 19(8), 12048-12064; J. Pharmacol. Toxicol. Methods., 2007, 56(1), 58-62). Living cells have mitochondrial dehydrogenases that reduce the WST-8 (2-(2-methoxy-4-nitrophenyl)-3-(4-nitrophenyl)-5-(2,4-disulfophenyl)-2H-tetrazolium), monosodium salt) to formazan of an orange colour, which dissolves directly in the culture medium in the presence of 1-Methoxy PMS (1-methoxy-5-methylphenazinium methyl sulphate). After an incubation for 1 h at 37° C., the absorbance of the formazan is measured at 450 nm. The absorbance is directly proportional to the number of living cells.
Briefly, the cells are inoculated in 96-well plates at a rate of 5.10^3 cells per well in 100 μL of the suitable medium until subconfluence. The cells are then washed with D-PBS, then treated with various concentrations (10 μM, 100 μM) of the products to be tested in triplicates for 24 and 48 h. A positive control is carried out with 10% of DMSO. The CCK-8 (10 μL) solution is then added to each well for an incubation for 1 h at 37° C. The measurement of the absorbance is taken at 450 nm using a Perkin Elmer 2103 Envision® microplate reader.
The viability of the cells is expressed as a % of the control (untreated cells) by the mean±standard deviation of triplicates forming a representative experiment or of three independent experiments conducted in triplicate.

[4] = MRC-5, 10 μM, 24 h of treatment
[5] = MRC-5, 10 μM, 48 h of treatment
[6] = MRC-5, 100 μM, 24 h of treatment
[7] = MRC-5, 100 μM, 48 h of treatment

Row | Structure (SMILES) | adducts with the MGO with regards to the free scavenger ([1]; after 5 h of reaction, no HPLC separation, trend) | Cu^2+ chelating properties (complexation of the Cu^2+) [2] | viability of the cells as a percentage of the untreated cells [3, 4] | viability of the cells as a percentage of the untreated cells [3, 5] | viability of the cells as a percentage of the untreated cells [3, 6] | viability of the cells as a percentage of the untreated cells [3, 7] | disappearance of the free scavenger to the benefit of adducts with the MGO [1]
1 | COc1cc(/C=C/C(=O)N2CCN(C(=O)CCC(N)CN)CC2)ccc1O (stereo not drawn) [Compound 29a, (E)-4,5-diamino-1-(4-(3-(4-hydroxy-3-methoxyphenyl)acryloyl)piperazin-1-yl)pentan-1-one] | majority presence of AdB | poor results | 103% | 104% | 99% | 103% | 
2 | NCC(N)CCCCNC(=O)c1cc(O)c(O)c(O)c1 (stereo not drawn) [Compound 30b, N-(5,6-diaminohexyl)-3,4,5-trihydroxybenzamide] |  | most active | 98% | 92% | 101% | 100% | 
3 | NCC(N)CCCNC(=O)CCn1cccc(O)c1=O (stereo not drawn) [Compound 37a, N-(4,5-diaminopentyl)-3-(3-hydroxy-2-oxopyridin-1(2H)-yl)propanamide] |  |  | 112% | 107% | 124% | 105% | almost total disappearance of the free scavenger
4 | NCC(N)CCCCNC(=O)CCn1cccc(O)c1=O (stereo not drawn) [Compound 37b, N-(5,6-diaminohexyl)-3-(3-hydroxy-2-oxopyridin-1(2H)-yl)propanamide] |  | most active | 113% | 103% | 113% | 101% | almost total disappearance of the free scavenger
5 | NCC(N)CCC(=O)NCCCn1cccc(O)c1=O (stereo not drawn) [Compound 37c, 4,5-diamino-N-(3-(3-hydroxy-2-oxopyridin-1(2H)-yl)propyl)pentanamide] |  |  | 97% | 94% | 89% | 90% | almost total disappearance of the free scavenger

— patent US10464920B2, “Vicinal primary diamines associated with metal and/or free radical chelation motifs, and active against carbonyl and oxidative stress, and use thereof” (UNIVERSITE AMIENS PICARDIE JULES VERNE, priority 2015, dated 2019)
